pIC50: −log10 of the molar value. Read-outs that look alike come from different tables or passages of the source.
Experiments:
E. coli CsgA = biological target: T1, E. coli CsgA (Escherichia coli, UniProt P28307); assay: In vitro ThioflavinT assay of CsgA aggregation (CsgA ThT Assay); assay type: biochemical
T1 construct: made in house; host or cells: E. coli NEB 3016 slyD::kan, pET11d
In short: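 Purified C-terminal His-tagged CsgA, monomerised by desalting and 30-kDa filtration, at 2-20 μM with 20-40 μM ThT in 50 mM potassium phosphate pH 7.3, 1% DMSO, compounds 3.125-200 uM; room temperature, fluorescence (ex 438/em 495 nm) read every 15 min. Background-subtracted signal expressed as percent inhibition versus vehicle at 6-6.5 or 8-9 h, or as percent control AUC.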

[1] = test system: CsgA gene expression (csgBAC promoter-GFP reporter) in E. coli UTI89; assay: In vitro live cell fluorescent reporter assay of CsgA transcription (Reporter Assay); assay type: cell-based; settings: for IC50: read-out: Reporter Assay Abs IC50 (μM), median Abs IC50 in the CsgA reporter assay
In short: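 Chromosomal single-copy csgBAC promoter–GFP reporter in E. coli UTI89, started at OD600 0.003 in YESCA broth with compound (0.14–100 μM, 1% DMSO), 20 h at 27 °C. GFP (ex 485/em 525 nm) background-subtracted and normalized to vehicle; IC50 and X[50] from curve fits. OD600 tracked growth effects.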

[2] = read-out: CsgA ThT Assay (10 μM CsgA) % Control AUC at 1005 minutes, 25 μM (activity range), CsgA 10 μM, black plates, compound 25 μM, 1005 minutes, class symbol
[3] = read-out: CsgA ThT Assay (10 μM CsgA) % Control AUC at 1005 minutes, 25 μM, mean AUC as % of DMSO control, CsgA 10 μM, black plates, compound 25 μM, 1005 minutes
[4] = read-out: CsgA ThT Assay (10 μM CsgA) % Control AUC at 1005 minutes, 100 μM (activity range), CsgA 10 μM, black plates, compound 100 μM, 1005 minutes, class symbol
[5] = read-out: CsgA ThT Assay (10 μM CsgA) % Control AUC at 1005 minutes, 100 μM, mean AUC as % of DMSO control, CsgA 10 μM, black plates, compound 100 μM, 1005 minutes
[6] = Escherichia coli, read-out: Reporter Assay Abs IC50 (activity range), median Abs IC50 in the CsgA reporter assay, class symbol
[7] = Escherichia coli, N/A = maximum expression reduction is <50% of control
[8] = read-out: CsgA ThT Assay (2 μM CsgA) % Control Bmax 25 μM, activity range, class symbol, CsgA 2 μM, white plates, compound 25 μM
[9] = read-out: CsgA ThT Assay (2 μM CsgA) % Control Bmax 25 μM, mean Bmax as percentage of DMSO control, CsgA 2 μM, white plates, compound 25 μM
[10] = read-out: CsgA ThT Assay (2 μM CsgA) % Control Bmax 100 μM, activity range, class symbol, CsgA 2 μM, white plates, compound 100 μM
[11] = read-out: CsgA ThT Assay (2 μM CsgA) % Control Bmax 100 μM, mean Bmax as percentage of DMSO control, CsgA 2 μM, white plates, compound 100 μM
[12] = Escherichia coli, read-out: Reporter Assay Abs IC50, activity range, class symbol

T1 sequence (P28307 23-151): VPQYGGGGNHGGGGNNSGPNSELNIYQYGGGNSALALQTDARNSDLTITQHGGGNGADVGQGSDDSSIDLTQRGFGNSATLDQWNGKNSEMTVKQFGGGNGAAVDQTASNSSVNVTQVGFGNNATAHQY

Structure (SMILES) | remaining activity at 25 µM (E. coli CsgA; [2]) | remaining activity at 25 µM (E. coli CsgA; [3]) | remaining activity at 100 µM (E. coli CsgA; [4]) | remaining activity at 100 µM (E. coli CsgA; [5]) | pIC50 [1, 6] | IC50 [1, 7] | remaining activity at 25 µM (E. coli CsgA; [8]) | remaining activity at 25 µM (E. coli CsgA; [9]) | remaining activity at 100 µM (E. coli CsgA; [10]) | remaining activity at 100 µM (E. coli CsgA; [11]) | pIC50 [1, 12] | CsgA ThT Assay (10 μM CsgA) % Control AUC at 1005 minutes, 25 μM (activity range) (E. coli CsgA; CsgA 10 μM, black plates, compound 25 μM, 1005 minutes, class symbol) | CsgA ThT Assay (10 μM CsgA) % Control AUC at 1005 minutes, 100 μM (activity range) (E. coli CsgA; CsgA 10 μM, black plates, compound 100 μM, 1005 minutes, class symbol) | CsgA ThT Assay (10 μM CsgA) % Control AUC at 1005 minutes, 25 μM (E. coli CsgA; mean AUC as % of DMSO control, CsgA 10 μM, black plates, compound 25 μM, 1005 minutes) | CsgA ThT Assay (10 μM CsgA) % Control AUC at 1005 minutes, 100 μM (E. coli CsgA; mean AUC as % of DMSO control, CsgA 10 μM, black plates, compound 100 μM, 1005 minutes) | pIC50 ([1]; read-out: Reporter Assay Abs IC50 (activity range), median Abs IC50 in the CsgA reporter assay, class symbol) | pIC50 ([1]; read-out: Reporter Assay Abs IC50, median Abs IC50 in the CsgA reporter assay, N/A = maximum expression reduction is <50% of control)
Nc1c(Cc2cccc3ccccc23)c(-c2cccc(C(F)(F)F)c2)c2n(c1=O)C(C(=O)O)CN(C[C@@H](O)CO)S2(=O)=O (stereo partly drawn) [Compound 096, 7-amino-2-((R)-2,3-dihydroxypropyl)-8-(naphthalen-1-ylmethyl)-6-oxo-9-(3-(trifluoromethyl)phenyl)-3,4-dihydro-2H,6H-pyrido[1,2-e][1,2,5]thiadiazine-4-carboxylic acid 1,1-dioxide] | > 60% | 79% | > 60% | 71% | < 5.00 | 22.9 µM | – | – | – | – | – | – | – | – | – | – | –
Nc1c(Cc2cccc3ccccc23)c(-c2cccc(C(F)(F)F)c2)c2n(c1=O)C(C(=O)O)CN(C[C@H](O)CO)S2(=O)=O (stereo partly drawn) [Compound 095, 7-amino-2-((S)-2,3-dihydroxypropyl)-8-(naphthalen-1-ylmethyl)-6-oxo-9-(3-(trifluoromethyl)phenyl)-3,4-dihydro-2H,6H-pyrido[1,2-e][1,2,5]thiadiazine-4-carboxylic acid 1,1-dioxide] | > 60% | 91% | > 60% | 70% | < 5.00 | 25.9 µM | – | – | – | – | – | – | – | – | – | – | –
CCCN1CC(C(=O)O)n2c(c(-c3cccc(C(F)(F)F)c3)c(Cc3cccc4ccccc34)c(C3CC3)c2=O)S1(=O)=O (stereo not drawn) [Compound 132, 7-cyclopropyl-8-(naphthalen-1-ylmethyl)-6-oxo-2-propyl-9-(3-(trifluoromethyl)phenyl)-3,4-dihydro-2H,6H-pyrido[1,2-e][1,2,5]thiadiazine-4-carboxylic acid 1,1-dioxide] | – | – | – | – | – | 2.4 µM | > 60% | 76% | > 60% | 122% | 5.35 to 5.89 | – | – | – | – | – | –
CN1CC(C(=O)O)n2c1c(-c1cccc(C(F)(F)F)c1)c(Cc1cccc3ccccc13)cc2=O (stereo not drawn) [Compound 104, 1-methyl-7-(naphthalen-1-ylmethyl)-5-oxo-8-(3-(trifluoromethyl)phenyl)-1,2,3,5-tetrahydroimidazo[1,2-a]pyridine-3-carboxylic acid] | > 60% | 82% | 31 to 60% | 52% | 5.00 to 5.34 | 6 µM | – | – | – | – | – | – | – | – | – | – | –
COC(=O)C1CSc2c(-c3cccc(C(F)(F)F)c3)c(Cc3cccc4ccccc34)cc(=O)n21 (stereo not drawn) [Compound 012, Methyl 7-(naphthalen-1-ylmethyl)-5-oxo-8-(3-(trifluoromethyl)phenyl)-2,3-dihydro-5H-thiazolo[3,2-a]pyridine-3-carboxylate] | > 60% | 108% | > 60% | 107% | 5.35 to 5.89 | 3.3 µM | – | – | – | – | – | – | – | – | – | – | –
CN1CC(C(=O)O)n2c(c(-c3cccc(C(F)(F)F)c3)c(Cc3cccc4ccccc34)c(N3CCNCC3)c2=O)S1(=O)=O (stereo not drawn) [Compound 102, 2-methyl-8-(naphthalen-1-ylmethyl)-6-oxo-7-(piperazin-1-yl)-9-(3-(trifluoromethyl)phenyl)-3,4-dihydro-2H,6H-pyrido[1,2-e][1,2,5]thiadiazine-4-carboxylic acid 1,1-dioxide] | > 60% | 90% | 31 to 60% | 57% | 5.00 to 5.34 | 5.4 µM | – | – | – | – | – | – | – | – | – | – | –
C=Cc1c(Cc2cccc3ccccc23)c(-c2cccc(C(F)(F)F)c2)c2n(c1=O)C(C(=O)O)CN(C)S2(=O)=O (stereo not drawn) [Compound 078, 2-methyl-8-(naphthalen-1-ylmethyl)-6-oxo-9-(3-(trifluoromethyl)phenyl)-7-vinyl-3,4-dihydro-2H,6H-pyrido[1,2-e][1,2,5]thiadiazine-4-carboxylic acid 1,1-dioxide] | 11 to 31% | 19% | 11 to 31% | 12% | 5.00 to 5.34 | 5.1 µM | – | – | – | – | – | – | – | – | – | – | –
CCCc1sc2c(-c3cccc(C(F)(F)F)c3)c(Cc3cccc4ccccc34)cc(=O)n2c1C(=O)O [Compound 061, 7-(naphthalen-1-ylmethyl)-5-oxo-2-propyl-8-(3-(trifluoromethyl)phenyl)-5H-thiazolo[3,2-a]pyridine-3-carboxylic acid] | 31 to 60% | 44% | 31 to 60% | 45% | 5.35 to 5.89 | 2.1 µM | – | – | – | – | – | – | – | – | – | – | –
CCCN1CC(C(=O)O)n2c(cc(Cc3cccc4ccccc34)c(NC3CCCC3)c2=O)S1(=O)=O (stereo not drawn) [Compound 006, 7-(cyclopentylamino)-8-(naphthalen-1-ylmethyl)-6-oxo-2-propyl-3,4-dihydro-2H,6H-pyrido[1,2-e][1,2,5]thiadiazine-4-carboxylic acid 1,1-dioxide] | – | – | – | – | – | 70 µM | > 60% | 66% | 31 to 60% | 34% | < 5.00 | – | – | – | – | – | –
CNC(=O)CN1CC(C(=O)O)n2c(c(-c3cccc(C(F)(F)F)c3)c(Cc3cccc4ccccc34)cc2=O)S1(=O)=O (stereo not drawn) [Compound 049, 2-(2-(methylamino)-2-oxoethyl)-8-(naphthalen-1-ylmethyl)-6-oxo-9-(3-(trifluoromethyl)phenyl)-3,4-dihydro-2H,6H-pyrido[1,2-e][1,2,5]thiadiazine-4-carboxylic acid 1,1-dioxide] | > 60% | 74% | 31 to 60% | 35% | 5.00 to 5.34 | 8.9 µM | – | – | – | – | – | – | – | – | – | – | –
CCN1CC(C(=O)O)n2c(c(-c3cccc(C(F)(F)F)c3)c(Cc3cccc4ccccc34)cc2=O)S1(=O)=O (single isomer, unassigned) [Compound 015b, 2-ethyl-8-(naphthalen-1-ylmethyl)-6-oxo-9-(3-(trifluoromethyl)phenyl)-3,4-dihydro-2H,6H-pyrido[1,2-e][1,2,5]thiadiazine-4-carboxylic acid 1,1-dioxide] | – | – | – | – | – | – | – | – | – | – | – | (+++) (% control AUC of 11 to 31%) | (+++) (% control AUC of 11 to 31%) | 29% | 23% | < 5.00 | 4.65
CCc1c(Cc2cccc3ccccc23)c(-c2cccc(C(F)(F)F)c2)c2n(c1=O)C(C(=O)O)CN2C (stereo not drawn) [Compound 136, 6-ethyl-1-methyl-7-(naphthalen-1-ylmethyl)-5-oxo-8-(3-(trifluoromethyl)phenyl)-1,2,3,5-tetrahydroimidazo[1,2-a]pyridine-3-carboxylic acid] | – | – | – | – | – | 3.5 µM | > 60% | 77% | 11 to 31% | 27% | 5.35 to 5.89 | – | – | – | – | – | –
CCCN1CC(C(=O)O)n2c(c(-c3cccc(C(F)(F)F)c3)c(Cc3cccc4ccccc34)c(Br)c2=O)S1(=O)=O (stereo not drawn) [Compound 107, 7-bromo-8-(naphthalen-1-ylmethyl)-6-oxo-2-propyl-9-(3-(trifluoromethyl)phenyl)-3,4-dihydro-2H,6H-pyrido[1,2-e][1,2,5]thiadiazine-4-carboxylic acid 1,1-dioxide] | 31 to 60% | 36% | 31 to 60% | 38% | 5.35 to 5.89 | 3.7 µM | – | – | – | – | – | – | – | – | – | – | –

Source: patent publication US20230131899A1, “INHIBITORS OF MICROBIALLY INDUCED AMYLOID” (Axial Therapeutics, Inc., priority 2020, published 2023)
